These results are taken from US6162828A, “Cysteine protease inhibitor” (Takeda Chemical Industries, Ltd., priority 1995, dated 2000).

For orientation: IC50 means the midpoint of a concentration-inhibition curve.

For the test, the target named is T1, ICE (IL-1β converting enzyme), recombinant (Homo sapiens, UniProt P29466).
T1 construct: positions corresponding to molecular weights of 25,000 and 15,800; made in house; host or cells: Sf9 insect cells (baculovirus, pVL-ICE)
T1 sequence (P29466 120-297 limits assumed): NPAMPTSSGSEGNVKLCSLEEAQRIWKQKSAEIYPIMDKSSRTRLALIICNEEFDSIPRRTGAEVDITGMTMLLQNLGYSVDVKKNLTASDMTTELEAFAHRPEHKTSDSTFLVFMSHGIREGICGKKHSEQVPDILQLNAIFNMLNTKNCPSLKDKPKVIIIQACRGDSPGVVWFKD
T1 sequence (P29466 317-404 limits assumed): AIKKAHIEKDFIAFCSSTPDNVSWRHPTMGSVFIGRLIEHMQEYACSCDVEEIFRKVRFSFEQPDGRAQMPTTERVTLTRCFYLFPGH
Description: Determination of ICE-inhibiting activity (fluorogenic substrate Ac-Y-V-A-D-MCA). The format is biochemical. The settings on record: recombinant ICE enzyme solution, 37° C. for 20 minutes, read-out: ICE-inhibiting activity in terms of IC50 value. Here is the method: Two ml of the ICE expression recombinant virus suspension as prepared in Reference Example 5 was added to the insect cell Sf9 cultured in 2 1 of Sf900 medium containing 5% fetal calf serum (FCS) (1.5×10^6 cells/ml) to cause infection. Post-infection cultivation was conducted at 27° C. in a spinner flask for 4 days. Cultured cells were recovered (hereinafter all operations conducted on ice), washed 3 times with PBS (-), and suspended in a hypotonic buffer (20 mM KCl, 25 mM HEPES, pH 7.4, 5 MM MgCl2, 1 MM EDTA, 1 MM PMSF, 10 μg/ml pepstatin and leupeptine) to 10^8 cells/ml. After the suspension was kept standing on ice for 20 minutes, cells were disrupted (25 times) using a Dounce homogenizer. Disrupted cells were removed via centrifugation; ammonium sulfate was added to the supernatant to 40% saturation; the precipitate fraction was removed via centrifugation. Ammonium sulfate was further added to 80% saturation; the precipitate was recovered. The precipitate was dissolved in buffer A (20 mM KCl, 25 mM HEPES, pH 7.4, 5 mM EDTA, 2 mM DTT, 1 mM PMSF, 0.1% NP-40, 10% glycerol) and dialyzed against buffer A overnight. […]
After completion of the reaction, the fluorescence intensity of free aminomethylcoumarin was determined at a wavelength of 450 nm via excitation at a wavelength of 365 nm, using a fluorometer FCA (produced by Baxter). […]

Where a SMILES comes first, the peptide text is derived from it. [ ]: non-standard residue; d: D form. The star is where a group is joined. Fmoc = O=C(OCC1c2ccccc2-c2ccccc21)*; Aib = CC(C)(N)C(=O)O

As for `CC(C)[C@H](NC(=O)OCC1c2ccccc2-c2ccccc21)C(=O)NC(C)(C)C(=O)N[C@H](C=O)CC(=O)O` [Example 60, Fmoc-Val-Aib-NH--CH(CHO)CH2 COOH] (Fmoc-Val-[Aib]-Asp-aldehyde), the IC50 was 19 nM.
